Experimental data published in paper PMC11484942, “Rumicidins are a family of mammalian host-defense peptides plugging the 70S ribosome exit tunnel” (Nature Communications, 2024).

Tests used:
PBMC = assay: Cytokine response, multiplex xMAP; format: cell-based, human; settings: 2 µM peptide, 24 h
Procedure: (§1) The acute monocytic leukemia THP-1 cell line (ATCC TIB-202) was cultured in the complete RPMI 1640 medium (Invitrogen) containing 10% FBS, 1× antibiotic-antimycotic solution (Invitrogen), and 0.05 mM β-mercaptoethanol, in the CO2-incubator (5% CO2, 37 °C). THP-1 cells were differentiated into proinflammatory macrophages (MΦ1) according to the previously reported protocol. Primary peripheral blood mononuclear cells (PBMC) collected from a healthy donor were purchased from ATCC (PCS-800-011), thawed, and seeded into a 96-well plate one day prior to the experiment at a density of 2 × 10^5 cells/well. Two different cell subpopulations (monocytes and T-/B-/NK-lymphocytes) were isolated from PBMC based on their adherence ability. Macrophages MΦ1 were washed out and seeded into 96-well plates at a density of 10^5 cells/well one day prior to the experiment. The next day, medium in each well was replaced by a fresh complete RPMI 1640 medium with or without 2 μM of a tested peptide (rumicidin-1 or LL-37). Cell cultures were kept in a CO2-incubator (5% CO2, 37 °C) for 24 h. Culture supernatants were collected 24 h later and stored at −70 °C degrees less than one week prior to the assessment of analytes. 26 analytes were measured at a protein level by multiplex xMAP technology using the MILLIPLEX MAP Human Cytokine/Chemokine Magnetic Bead Immunology Panel kit (HCYTOMAG-60K-27, Merck): eotaxin-1/CCL11, TGFα, GM-CSF, IFNα2, IFNγ, IL-10, IL-12p40, IL-12p70, IL-15, sCD40L, IL-17A, IL-1RA, IL-1α, IL-9, IL-1β, IL-2, IL-3, IL-4, IL-5, IL-6, IL-7, IL-8/CXCL8, IP-10/CXCL10, RANTES/CCL5, TNFα, TNFβ. Multiplex-based assay read-out was performed using the MAGPIX system (Merck) with the xPONENT 4.2 software (Merck) in accordance with the manufacturer’s instruction with overnight incubation of the samples with primary antibodies. The final analysis was carried out with the MILLIPLEX Analyst v5.1 software (Merck). Measurements were performed twice for each sample. The release of the analytes in control and experimental samples were compared by unpaired two-sample t-test using GraphPad Prism v.8.0.1. The p values ≤ 0.05 were considered significant.

Monocytes = assay: Cytokine response, multiplex xMAP; format: cell-based, human; settings: 2 µM peptide, 24 h
Procedure: as §1

E. coli 1057 WT = assay: microbe, parasite or virus in culture; format: cell-based, Escherichia coli; settings: MHB + 0.9% NaCl
Procedure: Minimum inhibitory concentrations (MIC) were determined by broth microdilution assay based on Clinical and Laboratory Standards Institute (CLSI) guidelines using BSA in the growth medium to minimize AMP nonspecific adsorption[49]. Bacterial test cultures were grown in the Mueller-Hinton broth (MHB, Sigma) at 37 °C to mid-log phase and then diluted with the 2× MH medium supplemented with 1.8% NaCl (or without salt) so that to reach a final cell concentration of 10^6 CFU/mL. 50 µL of the obtained bacterial suspension were added to aliquots of 50 µL of the peptide solutions serially diluted with sterilized 0.1% bovine serum albumin (BSA) in 96-well flat-bottom polystyrene microplates (Eppendorf #0030730011). […] To verify MIC values, the respiratory activity of the bacteria was determined. Briefly, 5 µL of 0.5 mg/mL resazurin (Sigma) was added to the wells after 24 h (or after 48 h for M. smegmatis) of incubation, and the plate was incubated for additional 3 h. In some cases, MICs were determined in the Lysogeny Broth (LB) or Middlebrook 7H9 medium. The reduction of resazurin to resorufin was recorded. […] The results were expressed as the median values determined based on at least three independent experiments performed in triplicate.

Caco-2 cells = assay: Cytokine response, multiplex xMAP; format: cell-based, human; settings: 2 µM peptide, 24 h

Compound: CC[C@H](C)[C@H](NC(=O)[C@H](CCCCN)NC(=O)[C@H](CCC(=O)O)NC(=O)[C@H](CCCCN)NC(=O)[C@H](CO)NC(=O)[C@H](CCCCN)NC(=O)[C@H](CCCNC(=N)N)NC(=O)[C@H](Cc1ccccc1)NC(=O)[C@H](Cc1ccccc1)NC(=O)[C@H](CC(=O)O)NC(=O)CNC(=O)[C@H](CC(C)C)NC(=O)[C@@H](N)CC(C)C)C(=O)NCC(=O)N[C@@H](CCCCN)C(=O)N[C@@H](CCC(=O)O)C(=O)N[C@@H](Cc1ccccc1)C(=O)N[C@@H](CCCCN)C(=O)N[C@@H](CCCNC(=N)N)C(=O)N[C@H](C(=O)N[C@H](C(=O)N[C@@H](CCC(N)=O)C(=O)N[C@@H](CCCNC(=N)N)C(=O)N[C@H](C(=O)N[C@@H](CCCCN)C(=O)N[C@@H](CC(=O)O)C(=O)N[C@@H](Cc1ccccc1)C(=O)N[C@@H](CC(C)C)C(=O)N[C@@H](CCCNC(=N)N)C(=O)N[C@@H](CC(N)=O)C(=O)N[C@@H](CC(C)C)C(=O)N[C@H](C(=O)N1CCC[C@H]1C(=O)N[C@@H](CCCNC(=N)N)C(=O)N[C@H](C(=O)N[C@@H](CCC(=O)O)C(=O)N[C@@H](CO)C(=O)O)[C@@H](C)O)C(C)C)[C@@H](C)CC)C(C)C)[C@@H](C)CC [LL-37]
- GM-CSF (PBMC): 0,66 pg/ml
- IFNa2 (PBMC): 3,72 pg/ml
- IFNg (PBMC): < 1.31 pg/mL
- IL-1RA (PBMC): 62,83 pg/ml
- IL-1a (PBMC): < 1.13 pg/mL
- IL-1b (PBMC): < 2.88 pg/mL
- IL-2 (PBMC): < 2.73 pg/mL
- IL-3 (PBMC): < 3.02 pg/mL
- IL-4 (PBMC): 38,61 pg/ml
- IL-5 (PBMC): < 2.74 pg/mL
- IL-6 (PBMC): < 2.42 pg/mL
- IL-7 (PBMC): < 2.06 pg/mL
- IL-8 (PBMC): 1591 pg/mL
- IL-9 (PBMC): < 3.08 pg/mL
- IL-10 (PBMC): < 1.47 pg/mL
- IL-12p40 (PBMC): < 3.69 pg/mL
- IL-12p70 (PBMC): 0,29 pg/ml
- IL-15 (PBMC): < 2.08 pg/mL
- IL-17A (PBMC): < 0.94 pg/mL
- IP-10 (PBMC): 2236 pg/mL
- RANTES (PBMC): 262,49 pg/ml
- TGF-a (PBMC): < 2.64 pg/mL
- TNFa (PBMC): 15,91 pg/ml
- TNFb (PBMC): < 2.85 pg/mL
- sCD40L (PBMC): 2,84 pg/ml
- Eotaxin (PBMC; supernatant): 3,21 pg/ml
- GM-CSF (Monocytes): 3,08 pg/ml
- IFNa2 (Monocytes): 34,74 pg/ml
- IFNg (Monocytes): 38,2 pg/ml
- IL-1RA (Monocytes): 168,96 pg/ml
- IL-1a (Monocytes): < 1.13 pg/mL
- IL-1b (Monocytes): < 2.88 pg/mL
- IL-2 (Monocytes): < 2.73 pg/mL
- IL-3 (Monocytes): 3,38 pg/ml
- IL-5 (Monocytes): < 2.74 pg/mL
- IL-6 (Monocytes): < 2.42 pg/mL
- IL-7 (Monocytes): 8,54 pg/ml
- IL-8 (Monocytes): 755,68 pg/ml
- IL-9 (Monocytes): < 3.08 pg/mL
- IL-10 (Monocytes): 4,1 pg/ml
- IL-12p40 (Monocytes): 17,59 pg/ml
- IL-12p70 (Monocytes): 5,7 pg/ml
- IL-15 (Monocytes): 4,8 pg/ml
- IP-10 (Monocytes): 897,33 pg/ml
- RANTES (Monocytes): 312,51 pg/ml
- TGF-a (Monocytes): < 2.64 pg/mL
- TNFa (Monocytes): 6,47 pg/ml
- TNFb (Monocytes): < 2.85 pg/mL
- sCD40L (Monocytes): 20,8 pg/ml
- MIC (E. coli 1057 WT): 2 µM
- Eotaxin (Caco-2 cells): < 2.04 pg/mL
- GM-CSF (Caco-2 cells): 0,45 pg/ml
- IFNa2 (Caco-2 cells): 3,72 pg/ml
- IFNg (Caco-2 cells): < 1.31 pg/mL
- IL-1RA (Caco-2 cells): < 2.66 pg/mL
- IL-1a (Caco-2 cells): < 1.13 pg/mL
- IL-1b (Caco-2 cells): < 2.88 pg/mL
- IL-2 (Caco-2 cells): < 2.73 pg/mL
- IL-3 (Caco-2 cells): < 3.02 pg/mL
- IL-4 (Caco-2 cells): 43,73 pg/ml
- IL-5 (Caco-2 cells): < 2.74 pg/mL
- IL-6 (Caco-2 cells): < 2.42 pg/mL
- IL-7 (Caco-2 cells): < 2.06 pg/mL
- IL-8 (Caco-2 cells): 3,19 pg/ml
- IL-9 (Caco-2 cells): < 3.08 pg/mL
- IL-10 (Caco-2 cells): < 1.47 pg/mL
- IL-12p40 (Caco-2 cells): < 3.69 pg/mL
- IL-12p70 (Caco-2 cells): 0,29 pg/ml
- IL-15 (Caco-2 cells): < 2.08 pg/mL
- IL-17A (Caco-2 cells): < 0.94 pg/mL
- IP-10 (Caco-2 cells): 114,78 pg/ml
- RANTES (Caco-2 cells): 1050 pg/mL
- TGF-a (Caco-2 cells): < 2.64 pg/mL
- TNFa (Caco-2 cells): < 2.85 pg/mL
- TNFb (Caco-2 cells): < 2.85 pg/mL
- sCD40L (Caco-2 cells): 2,12 pg/ml
